According to ChEMBL document CHEMBL1201862, “PubChem BioAssay data set” (2004):
The source made the active and inactive calls.

Key:
[1] = test system: Streptococcus sp. 'group A'; test: growth inhibition of control SK(-) GAS strain, dose response, counter-screen for streptokinase expression inhibitor project, luminescence, kanamycin, BacTiterGlo, confirmation (AID 1900); type: functional, organism-based
[2] = biological target: T1, Streptokinase A (Streptococcus pyogenes serotype M1, UniProt P10520); test: S. pyogenes streptokinase expression inhibitors, potency, dose response, plasminogen activation absorbance, OD405 (AID 1914); type: functional, Streptococcus pyogenes M1 GAS;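 further: secreted streptokinase activity via plasminogen activation per viability signal from cell pellet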
T1 sequence (P10520 whole entry): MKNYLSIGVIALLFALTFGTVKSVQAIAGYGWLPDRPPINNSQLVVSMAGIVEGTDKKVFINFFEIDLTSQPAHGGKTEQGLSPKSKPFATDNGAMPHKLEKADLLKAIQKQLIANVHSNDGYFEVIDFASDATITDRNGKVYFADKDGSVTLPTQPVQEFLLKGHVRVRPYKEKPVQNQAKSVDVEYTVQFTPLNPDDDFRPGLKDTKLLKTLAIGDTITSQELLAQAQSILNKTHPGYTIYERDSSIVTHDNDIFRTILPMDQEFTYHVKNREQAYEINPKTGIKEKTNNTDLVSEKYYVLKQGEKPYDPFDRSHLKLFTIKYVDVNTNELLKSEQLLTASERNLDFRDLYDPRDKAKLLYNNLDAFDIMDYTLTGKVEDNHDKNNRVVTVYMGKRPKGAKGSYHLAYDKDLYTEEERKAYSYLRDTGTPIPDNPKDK

[3] = test system: Streptococcus; test: Group A Streptococcus viability loss, dose response, counter-screen for streptokinase expression inhibitor project, luminescence, BacTiterGlo (AID 1915); type: functional, organism-based;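 further: potency for reduction of bacterial viability or growth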
[4] = biological target: T2, Protein skinhead-1 (Caenorhabditis elegans, UniProt P34707); type: functional
T2 sequence (P34707 whole entry): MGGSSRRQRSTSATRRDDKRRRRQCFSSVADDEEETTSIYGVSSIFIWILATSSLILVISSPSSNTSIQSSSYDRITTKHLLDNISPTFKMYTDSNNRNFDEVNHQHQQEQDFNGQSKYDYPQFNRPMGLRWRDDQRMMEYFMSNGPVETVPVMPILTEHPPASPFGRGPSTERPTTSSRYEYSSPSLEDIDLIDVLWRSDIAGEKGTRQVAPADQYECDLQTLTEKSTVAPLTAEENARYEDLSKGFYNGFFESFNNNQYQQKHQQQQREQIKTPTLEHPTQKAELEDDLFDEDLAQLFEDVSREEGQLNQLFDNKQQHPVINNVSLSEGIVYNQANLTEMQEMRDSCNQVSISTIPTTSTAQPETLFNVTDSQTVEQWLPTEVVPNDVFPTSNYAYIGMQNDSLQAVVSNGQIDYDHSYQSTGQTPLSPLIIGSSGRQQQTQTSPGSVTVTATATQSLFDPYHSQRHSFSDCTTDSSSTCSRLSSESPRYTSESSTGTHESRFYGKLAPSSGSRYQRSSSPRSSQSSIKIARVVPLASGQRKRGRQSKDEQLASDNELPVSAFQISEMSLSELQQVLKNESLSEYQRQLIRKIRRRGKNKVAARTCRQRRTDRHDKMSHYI

[5] = biological target: T3, Corticotropin-releasing factor receptor 2/Corticotropin-releasing factor-binding protein (Homo sapiens, UniProt P24387+Q13324); test: Dose Response confirmation of uHTS hits for small molecule antagonists of the CRF-binding protein and CRF-R2 receptor complex.; type: functional; details: read-out: IC50_Mean
T3 sequence (Q13324 whole entry): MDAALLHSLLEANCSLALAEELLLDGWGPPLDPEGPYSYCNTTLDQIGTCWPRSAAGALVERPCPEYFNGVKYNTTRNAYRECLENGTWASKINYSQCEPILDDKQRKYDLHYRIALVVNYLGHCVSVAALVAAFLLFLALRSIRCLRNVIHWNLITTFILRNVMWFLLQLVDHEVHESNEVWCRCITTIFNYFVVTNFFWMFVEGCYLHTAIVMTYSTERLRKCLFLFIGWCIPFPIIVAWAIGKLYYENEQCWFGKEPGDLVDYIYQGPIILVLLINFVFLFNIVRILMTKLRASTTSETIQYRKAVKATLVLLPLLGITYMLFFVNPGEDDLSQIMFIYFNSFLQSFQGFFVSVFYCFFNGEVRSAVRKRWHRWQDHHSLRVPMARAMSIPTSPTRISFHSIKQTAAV
T3 sequence (P24387 whole entry): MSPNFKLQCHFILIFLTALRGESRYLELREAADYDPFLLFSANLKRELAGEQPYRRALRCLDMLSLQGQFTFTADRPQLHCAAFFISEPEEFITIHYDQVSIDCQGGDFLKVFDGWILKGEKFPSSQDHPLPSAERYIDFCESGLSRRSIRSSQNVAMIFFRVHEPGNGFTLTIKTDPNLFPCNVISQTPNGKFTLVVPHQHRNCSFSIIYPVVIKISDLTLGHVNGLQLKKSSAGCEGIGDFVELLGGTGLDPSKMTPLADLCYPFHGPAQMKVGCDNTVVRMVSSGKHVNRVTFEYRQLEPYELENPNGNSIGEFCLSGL

[6] = biological target: T3, Corticotropin-releasing factor receptor 2/Corticotropin-releasing factor-binding protein; test: activators of CRF receptor 2 with binding protein – uHTS hits, confirmation (AID 602473); type: functional; details: read-out: EC50_Mean
[7] = biological target: T4, Cytochrome P450 1A2 (Homo sapiens, UniProt P05177);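 further: PubChem cytochrome P450 panel assay, CYP1A2 panel member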
T4 sequence (P05177 whole entry): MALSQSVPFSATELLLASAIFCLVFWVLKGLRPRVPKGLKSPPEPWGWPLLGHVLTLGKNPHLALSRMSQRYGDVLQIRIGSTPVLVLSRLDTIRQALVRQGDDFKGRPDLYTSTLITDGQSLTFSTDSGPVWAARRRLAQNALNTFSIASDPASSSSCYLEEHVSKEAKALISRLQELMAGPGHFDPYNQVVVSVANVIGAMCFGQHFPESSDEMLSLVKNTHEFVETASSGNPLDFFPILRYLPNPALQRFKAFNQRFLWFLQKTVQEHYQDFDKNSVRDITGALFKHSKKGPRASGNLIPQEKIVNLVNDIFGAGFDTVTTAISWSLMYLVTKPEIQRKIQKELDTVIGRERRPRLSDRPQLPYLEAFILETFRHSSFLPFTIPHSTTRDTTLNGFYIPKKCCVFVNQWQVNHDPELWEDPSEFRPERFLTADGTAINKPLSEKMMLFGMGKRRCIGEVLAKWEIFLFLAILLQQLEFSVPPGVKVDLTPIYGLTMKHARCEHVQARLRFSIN

[8] = biological target: Cytochrome P450 3A4 (Homo sapiens, UniProt P08684);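 further: CYP3A4 tested as one member of a cytochrome P450 panel screen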
[9] = test system: INS1; test: beta cell apoptosis inhibitors, cytokine rescue, dose response, luminescence, retest (AID 449756); type: functional, cell-based; details: Rattus norvegicus, INS1;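 further: cell death triggered by IL-1 beta plus TNF-alpha plus IFN-gamma mixture; protective hits raise ATP signal compared with cytokine alone wells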
[10] = biological target: Cytochrome P450 2D6 (Homo sapiens, UniProt P10635);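 further: CYP2D6 member of a cytochrome P450 panel assay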
Sequence of Cytochrome P450 2D6 (P10635 whole entry): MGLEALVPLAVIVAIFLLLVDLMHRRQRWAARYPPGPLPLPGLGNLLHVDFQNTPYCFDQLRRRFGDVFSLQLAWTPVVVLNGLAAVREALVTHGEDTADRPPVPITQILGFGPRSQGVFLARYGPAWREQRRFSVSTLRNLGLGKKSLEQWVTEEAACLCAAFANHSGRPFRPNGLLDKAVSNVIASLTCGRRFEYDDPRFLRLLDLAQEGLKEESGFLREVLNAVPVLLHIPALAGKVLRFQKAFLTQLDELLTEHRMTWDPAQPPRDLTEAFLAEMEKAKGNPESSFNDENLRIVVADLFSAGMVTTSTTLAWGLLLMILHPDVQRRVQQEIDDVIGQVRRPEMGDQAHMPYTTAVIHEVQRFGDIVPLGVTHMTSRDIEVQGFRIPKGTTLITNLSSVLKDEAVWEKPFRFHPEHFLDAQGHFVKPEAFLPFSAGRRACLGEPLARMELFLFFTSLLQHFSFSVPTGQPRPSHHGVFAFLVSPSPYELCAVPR

Sequence of Cytochrome P450 3A4 (P08684 whole entry): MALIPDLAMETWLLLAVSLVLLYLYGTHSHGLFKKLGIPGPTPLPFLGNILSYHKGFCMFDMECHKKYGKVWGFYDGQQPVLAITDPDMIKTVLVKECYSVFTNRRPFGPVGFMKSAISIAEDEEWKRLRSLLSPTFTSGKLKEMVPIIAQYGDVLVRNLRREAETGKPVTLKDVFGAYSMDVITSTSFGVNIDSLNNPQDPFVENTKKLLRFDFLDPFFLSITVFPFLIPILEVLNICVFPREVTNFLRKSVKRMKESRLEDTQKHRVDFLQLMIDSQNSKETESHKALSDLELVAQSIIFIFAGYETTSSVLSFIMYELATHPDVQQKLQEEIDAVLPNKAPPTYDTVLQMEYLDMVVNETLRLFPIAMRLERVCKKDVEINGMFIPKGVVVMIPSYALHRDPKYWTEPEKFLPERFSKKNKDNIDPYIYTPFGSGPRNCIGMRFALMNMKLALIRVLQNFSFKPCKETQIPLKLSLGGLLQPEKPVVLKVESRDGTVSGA

CCCOc1ccc(/C=C/c2c([N+](=O)[O-])c(=O)n(C)c(=O)n2C)cc1
EC50 [1]: 26.9 µM (active) | EC50 [2]: > 150 µM (not active) | EC50 [3]: > 150 µM (not active)

Clc1ccc2nc(N3CCCCC3)sc2c1
IC50 [4]: 29.2 µM (active)

Cc1nn2c(N)c(-c3ccccc3)cnc2c1-c1ccc(Cl)cc1
IC50 [5]: > 47.1 µM (inactive) | EC50 [6]: > 53 µM (inactive)

O=C(Nc1ccc(OC(F)F)c(Cl)c1)c1cccc(OC(F)F)c1
IC50 [4]: 48.3 µM (active)

Cc1ccc(C23CC4CC(CC(C(=O)N5CCN(C)CC5)(C4)C2)C3)cc1
EC50 [1]: > 150 µM (not active) | EC50 [2]: > 150 µM (not active) | EC50 [3]: > 150 µM (not active)

CCCN1Cc2cccc(C(=O)NCc3cccs3)c2C1=O
IC50 [5]: > 47.1 µM (inactive) | EC50 [6]: > 53 µM (inactive)

Cc1cc(C)n(C(=O)/C(C#N)=N/Nc2cc(Cl)cc(Cl)c2)n1
EC50 [1]: 2.34 µM (active) | EC50 [2]: > 150 µM (not active) | EC50 [3]: 12.3 µM (active)

CC(=O)Nc1ccc(OCC[n+]2cccc(C(N)=O)c2)cc1
IC50 [5]: > 47.1 µM (inactive) | EC50 [6]: > 53 µM (inactive)

CCOc1nc(C)ccc1-c1noc(-c2ccccn2)n1
IC50 [5]: > 47.1 µM (inactive) | EC50 [6]: > 53 µM (inactive)

COC(=O)c1sc2ccccc2c1-n1cccc1C(=O)C(=O)Nc1ccc(Cl)cc1
AC50 [7]: 2.82 µM (inconclusive) | AC50 [8]: 14.1 µM (inconclusive)

c1ccc(-c2csc(N3CCN(c4ccccn4)CC3)n2)cc1
IC50 [4]: 26.5 µM (active)

COc1ccc(C2CC(=O)c3cnc(N4CCN(Cc5ccccc5)CC4)nc3C2)cc1 (stereo unspecified)
EC50 [1]: 14.9 µM (active) | EC50 [2]: > 150 µM (not active) | EC50 [3]: 21.6 µM (active)

CN1CCN(c2ncc3ncc(=O)n(Cc4cccs4)c3n2)CC1
AC50 [8]: 25.1 µM (inconclusive)

O=C(Nc1ccc2c(c1)Cc1ccccc1-2)c1ccco1
IC50 [4]: > 100 µM (inactive)

CCC(C)Sc1ccc(-c2nc3ccc(C)cn3c2NCc2ccccc2)cc1OC (stereo unspecified)
AC50 [9]: 6.7 µM (active)

Cc1c(C)c2c(c(C)c1O)CC[C@@](C)(C(=O)O)O2
AC50 [7]: 20 µM (inconclusive) | AC50 [8]: 12.6 µM (inconclusive)

O=C(c1csnn1)N1CCC[C@@]2(CCN(c3ccccn3)C2)C1
AC50 [10]: 12.6 µM (inconclusive) | AC50 [8]: 6.31 µM (inconclusive)

O=C(Nc1ccc(N2CCCCC2)cc1)c1ccc2ccccc2n1
IC50 [4]: > 100 µM (inactive)

OCc1cccc(-c2csc(C(O)(c3ccccc3)C(F)(F)F)n2)c1 (stereo unspecified)
IC50 [4]: > 100 µM (inactive)

Cc1nc2cnc(N(C)C)nc2n(Cc2cccs2)c1=O
AC50 [10]: 12.6 µM (inconclusive) | AC50 [8]: 3.16 µM (inconclusive)

COc1ccccc1NC(=O)Cn1cc(C(=O)c2ccco2)c2ccccc21
AC50 [9]: 9.44 µM (active)

CC1CCN(C(=O)c2ccc(COc3ccccc3Cl)o2)CC1
AC50 [10]: 28.2 µM (inconclusive) | AC50 [8]: 31.6 µM (inconclusive)

FC(F)(F)c1cc(Nc2ccccc2)nc(-c2ccccn2)n1
EC50 [1]: 9.52 µM (active) | EC50 [2]: > 150 µM (not active) | EC50 [3]: 88.6 µM (active)

COc1ccc(OC)c(-n2c(C)cc(/C=C3\C(=N)N4N=C(CC(=O)N5CCOCC5)SC4=NC3=O)c2C)c1
EC50 [1]: 36.3 µM (active) | EC50 [2]: > 150 µM (not active) | EC50 [3]: 87.9 µM (active)

O=C(NC(=S)N1CCN(c2nc(-c3ccccc3)cs2)CC1)c1cccnc1
EC50 [1]: 5.55 µM (active) | EC50 [2]: > 150 µM (not active) | EC50 [3]: > 150 µM (not active)

O=C(Nc1ccccc1)N1CC[C@@]2(CCCN(C(=O)Oc3ccccc3)C2)C1
AC50 [7]: 15.8 µM (inconclusive) | AC50 [8]: 25.1 µM (inconclusive)

CN(C)S(=O)(=O)c1cccc(NC(=O)COC(=O)c2ccc(Br)o2)c1
AC50 [8]: 20 µM (inconclusive)

COc1ccc2nc(Nc3nc4cc5c(cc4s3)OCO5)sc2c1
EC50 [1]: 1.17 µM (active) | EC50 [2]: > 150 µM (not active) | EC50 [3]: > 150 µM (not active)

CC(C)=CCc1c(-c2ccc(O)cc2O)oc2c3c(cc(O)c2c1=O)OC(C)(C)C=C3 [MORUSIN]
EC50 [1]: 2.71 µM (active) | EC50 [2]: 1.15 µM (active) | EC50 [3]: 2.96 µM (active)

COc1ccc(N2C(=O)NC(NC(=O)c3ccncc3)(C(F)(F)F)C2=O)cc1 (stereo unspecified)
AC50 [8]: 22.4 µM (inconclusive)

CCOc1ccc(-n2c(=O)[nH]cc(C(=O)Nc3ccc(OC)c(OC)c3)c2=O)cc1
AC50 [9]: > 260 µM (inactive)

O=C1CSC(c2ccccc2F)N1 (stereo unspecified)
AC50 [9]: > 260 µM (inactive)

CN1CCN(c2ncc3nc(-c4cc(F)cc(F)c4)c(=O)n(Cc4cccs4)c3n2)CC1
AC50 [7]: 6.31 µM (inconclusive) | AC50 [8]: 25.1 µM (inconclusive)

Clc1cccc(CSc2ncn(-c3ccccc3)n2)c1
IC50 [4]: 24.7 µM (active)

O=C(Nc1c(C(=O)N2CCCCC2)cnn1-c1ccccc1)c1ccco1
AC50 [8]: 17.8 µM (inconclusive)

O=C(COC(=O)C12CC3CC(CC(O)(C3)C1)C2)Nc1cccc(Br)c1
IC50 [4]: > 100 µM (inactive)

Clc1ccccc1-c1nnc(-c2ccccc2Cl)o1
IC50 [4]: 53.8 µM (inactive)

COc1ccc(CN(C)S(=O)(=O)c2nnc(NC(=O)c3ccccc3Br)s2)cc1
EC50 [1]: 6.23 µM (active) | EC50 [2]: 9.36 µM (active) | EC50 [3]: 98.9 µM (active)

CCCC[C@@H]1C[C@H]1C(NC(=O)c1ccccc1)c1ccccc1C(F)(F)F (stereo partly specified)
AC50 [7]: 10 µM (inconclusive) | AC50 [8]: 3.16 µM (inconclusive)

COCCNC(=O)CC(c1ccccc1)c1ccccc1
IC50 [4]: > 100 µM (inactive)

CCOC(=O)c1ccc(Nc2nnc(C(C)(C)C)c(O)n2)cc1
IC50 [4]: > 100 µM (inactive)

Cc1ccccc1NC(=O)Cc1nc(COC(=O)c2cccc(O)c2)cs1
IC50 [4]: > 100 µM (inactive)

O=C(N/N=C/c1c[nH]c2ccccc12)c1ccn(Cc2ccc(Cl)cc2Cl)n1
AC50 [10]: 7.08 µM (inconclusive) | AC50 [8]: 3.55 µM (inconclusive)
